Laboratory results published in patent EP0552417B1, “Cyclic peptides and use thereof” (priority 1991, dated 1993).
Non-standard residues stand in square brackets, D forms with d. Residues, ends and D or L forms follow the SMILES beside them. Hyp = O=C(O)[C@@H]1C[C@@H](O)CN1; d2Thi = N[C@H](Cc1cccs1)C(=O)O; Pip = O=C(O)[C@@H]1CCCCN1; Aze = O=C(O)[C@@H]1CCN1

Tests used:
[1] = target: T1, endothelin receptor B (ETB) (Bos taurus, UniProt P28088); test: Assay of affinity for receptor (2): binding activity on ETB receptor *1, 125I-labeled endothelin-1, bovine brain membrane fraction; details: specific activity, taking the binding activity of the compound of Example 8 on receptor B as 100, 25°C, 1 hour
T1 construct: A membrane fraction prepared from the bovine brain; from tissue; host or cells: bovine brain membrane fraction
T1 sequence (P28088 27-441): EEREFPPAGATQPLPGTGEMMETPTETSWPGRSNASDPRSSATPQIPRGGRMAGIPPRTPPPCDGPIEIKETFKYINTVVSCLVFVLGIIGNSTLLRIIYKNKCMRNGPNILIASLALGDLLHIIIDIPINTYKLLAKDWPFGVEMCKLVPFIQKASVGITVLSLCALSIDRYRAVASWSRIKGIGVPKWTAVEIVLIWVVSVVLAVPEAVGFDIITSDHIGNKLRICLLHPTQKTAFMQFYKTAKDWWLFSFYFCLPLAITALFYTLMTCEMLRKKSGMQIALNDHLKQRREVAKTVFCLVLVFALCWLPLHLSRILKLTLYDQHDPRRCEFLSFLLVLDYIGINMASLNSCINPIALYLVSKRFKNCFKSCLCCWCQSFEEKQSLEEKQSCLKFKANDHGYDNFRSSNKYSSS
Protocol: Assay of Affinity for Receptor (2) ... Binding Activity on ETB Receptor *1
A membrane fraction prepared from the bovine brain was diluted to 0.15 mg/ml by using a buffer solution for assay, and 100 µl of the resulting suspension of the membrane fraction was poured into each assay tube to use for assay. To this suspension of the membrane fraction was added 2 µl of 5 nM ^125I labeled endothelin-1 solution. Further, 3 µl of a test peptide solution was added thereto, followed by incubation at a temperature of 25°C for 1 hour. Then, the resulting suspension was diluted with 900 µl of the buffer solution for assay cooled with ice, and thereafter separated into a supernatant and a precipitate by centrifugation at 12,000 X g for 10 minutes. Cell membranes and an endothelin receptor B (ETB) embedded therein were contained in the precipitate, and radioactive iodine-labeled endothelin bound to the receptor was also recovered in the precipitate. Accordingly, the amount of radioactive iodine-labeled endothelin bound to the endothelin receptor B (ETB) was determined by measuring the amount of radioactive iodine contained in the precipitate with a gamma-ray counter. The numerical value of ETB shown in Table 1 is the value of specific activity, taking the binding activity of the compound of Example 8 on the receptor B as 100.

[2] = test system: ETB; test: ETB radio receptor assay *2, 125I-endothelin-1, guinea pig kidney crude membrane fraction; assay type: binding, Guinea pigs; details: relative activity, 37 °C, 90 minutes
In short: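 Radioligand binding used crude guinea pig kidney membranes (2.1 µg protein) with 740 Bq 125I-endothelin-1. Incubation was 90 min at 37 °C in 50 mM Tris-HCl pH 7.4, 0.1 mM PMSF, 1 mM EDTA, 0.2% BSA. Bound radioactivity was collected by GF/B filtration and measured by gamma counting.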

[3] = target: T2, endothelin receptor A (ETA) (Sus scrofa, UniProt Q29010); test: Assay of affinity for receptor (1): binding activity on ETA receptor, 125I-labeled endothelin-1, porcine heart membrane fraction; design: key: relative specific activity; reference cyclic pentapeptide ETA binding = 1.0; details: specific activity, taking the binding activity of control cyclo[-D-Glu-Ala-D-aIle-Leu-D-Trp-] on receptor A as 1.0, 25°C, 1 hour
T2 construct: A membrane fraction prepared from the porcine heart; from tissue; host or cells: porcine heart membrane fraction
T2 sequence (Q29010 21-427): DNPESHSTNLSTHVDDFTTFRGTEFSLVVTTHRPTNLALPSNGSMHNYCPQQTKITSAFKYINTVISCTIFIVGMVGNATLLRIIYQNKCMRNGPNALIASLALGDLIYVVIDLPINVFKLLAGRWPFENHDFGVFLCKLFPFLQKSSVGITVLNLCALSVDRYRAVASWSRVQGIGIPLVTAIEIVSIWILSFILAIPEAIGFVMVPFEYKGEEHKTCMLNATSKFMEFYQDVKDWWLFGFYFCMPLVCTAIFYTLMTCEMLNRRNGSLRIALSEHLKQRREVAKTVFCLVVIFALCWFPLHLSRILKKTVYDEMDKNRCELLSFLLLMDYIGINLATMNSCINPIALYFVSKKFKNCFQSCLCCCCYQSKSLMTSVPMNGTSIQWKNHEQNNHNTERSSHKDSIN
In short: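 Porcine heart membranes (0.15 mg/ml) incubated with 125I-endothelin-1 and test peptide for 1 h at 25°C, then centrifuged; pellet-bound radioactivity counted by gamma counter. Values given as specific activity relative to reference cyclo[-D-Glu-Ala-D-aIle-Leu-D-Trp-], set at 1.0.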

SMILES	Binding Activity on ET Receptor (R. act.) ETB*1 [1]	Binding Activity on ET Receptor (R. act.) ETB*2 [2]	Binding Activity on ET Receptor (R. act.) ETA [3]
CC(C)C[C@@H]1NC(=O)[C@@H](CC(C)C)NC(=O)[C@H](CC(=O)O)NC(=O)[C@H](CC(=O)O)NC(=O)[C@@H](CC(=O)O)NC(=O)[C@@H](Cc2c[nH]c3ccccc23)NC1=O [Example 16, Cyclo[-D-Asp-Asp-Asp-D-Leu-Leu-D-Trp-]] (cyclo(DD[dL]L[dW][dD]))	14	34	10
CC(C)C[C@@H]1NC(=O)[C@@H](CC(C)C)NC(=O)[C@H](CC(=O)O)NC(=O)[C@@H]2CCN2C(=O)[C@@H](CC(=O)O)NC(=O)[C@@H](Cc2c[nH]c3ccccc23)NC1=O [Example 25, Cyclo[-D-Asp-Azc-Asp-D-Leu-Leu-D-Trp-]] (cyclo([Aze]D[dL]L[dW][dD]))	25	57	30
CC(C)C[C@@H]1NC(=O)[C@@H](C(C)C)NC(=O)[C@H](CC(=O)O)NC(=O)[C@H](Cc2c[nH]c3ccccc23)NC(=O)[C@@H](CC(=O)O)NC(=O)[C@@H](Cc2c[nH]c3ccccc23)NC1=O [Example 52, Cyclo[-D-Asp-Trp-Asp-D-Val-Leu-D-Trp-]] (cyclo(D[dV]L[dW][dD]W))	240	100	75
CC(C)C[C@@H]1NC(=O)[C@@H](CC(C)C)NC(=O)[C@H](CC(=O)O)NC(=O)[C@H](C)NC(=O)[C@@H](CC(=O)O)NC(=O)[C@@H](Cc2c[nH]c3ccccc23)NC1=O [Example 1, cyclo[-D-Asp-Ala-Asp-D-Leu-Leu-D-Trp-]] (cyclo(AD[dL]L[dW][dD]))	13	2.0	9.7
CC(C)C[C@@H]1NC(=O)[C@@H](CC(C)C)NC(=O)[C@H](CC(=O)O)NC(=O)[C@@H]2CCCCN2C(=O)[C@@H](CC(=O)O)NC(=O)[C@@H](Cc2c[nH]c3ccccc23)NC1=O [Example 26, Cyclo[-D-Asp-Pip-Asp-D-Leu-Leu-D-Trp-]] (cyclo(D[dL]L[dW][dD][Pip]))	38	73	25
CC(C)C[C@@H]1NC(=O)[C@@H](CC(C)C)NC(=O)[C@H](CC(=O)O)NC(=O)[C@@H]2C[C@@H](O)CN2C(=O)[C@@H](CC(=O)O)NC(=O)[C@@H](Cc2c[nH]c3ccccc23)NC1=O [Example 14, cyclo[-D-Asp-Hyp-Asp-D-Leu-Leu-D-Trp-]] (cyclo(D[dL]L[dW][dD][Hyp]))	160	120	70
CC(C)C[C@H]1NC(=O)[C@H](CC(=O)O)NC(=O)[C@H](C)NC(=O)[C@@H](CC(=O)O)NC(=O)[C@@H](Cc2c[nH]c3ccccc23)NC(=O)[C@H](Cc2c[nH]c3ccccc23)NC1=O [Example 58, Cyclo[-D-Asp-Ala-Asp-D-Leu-Trp-D-Trp-]] (cyclo(AD[dL]W[dW][dD]))	6.7	22	0.7
CC(C)C[C@@H]1NC(=O)[C@@H](CC(C)C)NC(=O)[C@H](CC(=O)O)NC(=O)[C@@H]2CCCN2C(=O)[C@@H](CC(=O)O)NC(=O)[C@@H](Cc2c[nH]c3ccccc23)NC1=O [Example 9, cyclo[-D-Asp-Pro-Asp-D-Leu-Leu-D-Trp-]] (cyclo(D[dL]L[dW][dD]P))	140	67	56
CC(C)C[C@@H]1NC(=O)[C@@H](Cc2ccccc2)NC(=O)[C@H](CC(=O)O)NC(=O)[C@H](Cc2c[nH]c3ccccc23)NC(=O)[C@@H](CC(=O)O)NC(=O)[C@@H](Cc2c[nH]c3ccccc23)NC1=O [Example 60, Cyclo[-D-Asp-Trp-Asp-D-Phe-Leu-D-Trp-]] (cyclo(D[dF]L[dW][dD]W))	210	44	1
CC(C)C[C@@H]1NC(=O)[C@@H](Cc2cccs2)NC(=O)[C@H](CC(=O)O)NC(=O)[C@H](Cc2c[nH]c3ccccc23)NC(=O)[C@@H](CC(=O)O)NC(=O)[C@@H](Cc2c[nH]c3ccccc23)NC1=O [Example 50, Cyclo[-D-Asp-Trp-Asp-D-Thi-Leu-D-Trp-]] (cyclo(D[d2Thi]L[dW][dD]W))	350	57	4
